Source: patent US10766869B2, “Triazoles for the treatment of demyelinating dieases” (Vertex Pharmaceuticals Incorporated, priority 2015, dated 2020)

Tested on: primary rat mixed cortical cells
Experiment: In vitro myelination assay (MBP positive myelin strands, fold myelin pixels above background)
Format: cell-based
Conditions: Rattus norvegicus, relative to baseline of no added compound; for fold induction at 1 µM: 1.0 μM compound, read-out: Fold myelin pixels above background, 1.0 μM; for fold induction at 10 µM: 10.0 μM compound, read-out: Fold myelin pixels above background, 10.0 μM
Procedure, shortened: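 P1 rat cortical cells (neurons, OPCs, oligodendrocytes, astrocytes, microglia) were cultured 14 days at 37 °C with compound, with half-medium changes containing 1× compound on days 6 and 10. Fixed cells were immunostained for MBP and imaged at 10×. Total MBP myelin pixels per well were expressed as fold above no-compound baseline at 1.0 μM and 10.0 μM.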

Row | Structure (SMILES) | fold induction at 1 µM | fold induction at 10 µM
1 | Fc1cc(F)cc(-n2cnc(Nc3cc(C4CC4)nc(N4CC[C@@H](F)C4)c3)n2)c1 [Compound 105, 2-cyclopropyl-N-[1-(3,5-difluorophenyl)-1,2,4-triazol-3-yl]-6-[(3R)-3-fluoropyrrolidin-1-yl]pyridin-4-amine] | 100 to 1000 | 1 to 10
2 | COc1cccc(-n2cnc(Nc3cc(Cl)nc(N4CCCCC4)c3)n2)c1 [Compound 106, 2-chloro-N-[1-(3-methoxyphenyl)-1,2,4-triazol-3-yl]-6-(1-piperidyl)pyridin-4-amine] | ≤ 1 | 1 to 10
3 | Cc1cc(Nc2ncn(-c3cc(F)cc(F)c3)n2)cc(C2CCNCC2)c1 [Compound 108, 1-(3,5-difluorophenyl)-N-[3-methyl-5-(4-piperidyl)phenyl]-1,2,4-triazol-3-amine] | 10 to 100 | ≤ 1
4 | CN(C)C1CCN(c2cc(F)cc(Nc3ncn(-c4cccc(F)c4)n3)c2)C1 (stereo not shown) [Compound 109, N-[3-[3-(dimethylamino)pyrrolidin-1-yl]-5-fluoro-phenyl]-1-(3-fluorophenyl)-1,2,4-triazol-3-amine] | 10 to 100 | ≤ 1
5 | Cc1cc(Nc2ncn(-c3ccccc3)n2)cc(N2CCCC2)c1 [Compound 110, N-(3-methyl-5-pyrrolidin-1-yl-phenyl)-1-phenyl-1,2,4-triazol-3-amine] | 100 to 1000 | 1 to 10
6 | Cc1cc(Nc2ncn(-c3cc(C)ncn3)n2)cc(N2CCN(C3COC3)CC2)c1 [Compound 111, N-[3-methyl-5-[4-(oxetan-3-yl)piperazin-1-yl]phenyl]-1-(6-methylpyrimidin-4-yl)-1,2,4-triazol-3-amine] | 10 to 100 | 100 to 1000
7 | Fc1cc(Nc2ncn(-c3cc(F)cc(F)c3)n2)cc(N2CCN(C3COC3)CC2)c1 [Compound 112, 1-(3,5-difluorophenyl)-N-[3-fluoro-5-[4-(oxetan-3-yl)piperazin-1-yl]phenyl]-1,2,4-triazol-3-amine] | 1000 to 10000 | 100 to 1000
8 | Cc1cc(Nc2ncn(-c3ccc(F)c(F)c3)n2)cc(NC2CCN(C3COC3)C2)c1 (stereo not shown) [Compound 113, N3-[1-(3,4-difluorophenyl)-1,2,4-triazol-3-yl]-5-methyl-N1-[1-(oxetan-3-yl)pyrrolidin-3-yl]benzene-1,3-diamine] | 1000 to 10000 | ≤ 1
9 | Cc1cc(Nc2ncn(-c3cc(F)cc(F)c3)n2)cc(N2CCCC(N3CCCC3=O)C2)c1 (stereo not shown) [Compound 114, 1-[1-[3-[[1-(3,5-difluorophenyl)-1,2,4-triazol-3-yl]amino]-5-methyl-phenyl]-3-piperidyl]pyrrolidin-2-one] | 10 to 100 | 10 to 100
10 | CC(=O)N1CCCC(Nc2cc(C)cc(Nc3ncn(-c4ccccc4)n3)c2)C1 (stereo not shown) [Compound 115, 1-[3-[3-methyl-5-[(1-phenyl-1,2,4-triazol-3-yl)amino]anilino]-1-piperidyl]ethanone] | 100 to 1000 | 100 to 1000
11 | COCC1CN(c2cc(C)cc(Nc3ncn(-c4cc(F)cc(F)c4)n3)c2)C1 [Compound 116, 1-(3,5-difluorophenyl)-N-[3-[3-(methoxymethyl)azetidin-1-yl]-5-methyl-phenyl]-1,2,4-triazol-3-amine] | ≤ 1 | ≤ 1
12 | CC(=O)N1CCCC(c2cc(C)cc(Nc3ncn(-c4ccccc4)n3)c2)C1 (stereo not shown) [Compound 117, 1-[3-[3-methyl-5-[(1-phenyl-1,2,4-triazol-3-yl)amino]phenyl]-1-piperidyl]ethanone] | 1000 to 10000 | ≤ 1
13 | Cc1cc(Nc2ncn(-c3ccccc3)n2)cc(N2CCN(C3COC3)CC2)c1 [Compound 118, N-[3-methyl-5-[4-(oxetan-3-yl)piperazin-1-yl]phenyl]-1-phenyl-1,2,4-triazol-3-amine] | 100 to 1000 | 10 to 100
14 | Cc1cc(Nc2ncn(-c3cc(F)cc(F)c3)n2)cc(N2CCN(C)C(C)C2)c1 (stereo not shown) [Compound 119, 1-(3,5-difluorophenyl)-N-[3-(3,4-dimethylpiperazin-1-yl)-5-methyl-phenyl]-1,2,4-triazol-3-amine] | 100 to 1000 | 10 to 100
15 | Cc1cc(Nc2ncn(-c3ccccc3)n2)cc(C2CCN(C3CC3)CC2)c1 [Compound 120, N-[3-(1-cyclopropyl-4-piperidyl)-5-methyl-phenyl]-1-phenyl-1,2,4-triazol-3-amine] | 1000 to 10000 | ≤ 1
16 | Fc1cc(-n2cnc(Nc3cc(C4CC4)cc(N4CCN(C5COC5)CC4)c3)n2)cc(F)n1 [Compound 121, N-[3-cyclopropyl-5-[4-(oxetan-3-yl)piperazin-1-yl]phenyl]-1-(2,6-difluoro-4-pyridyl)-1,2,4-triazol-3-amine] | 100 to 1000 | ≤ 1
17 | COCC1CCN(c2cc(C)cc(Nc3ncn(-c4ccnc(F)c4)n3)c2)CC1 [Compound 122, 1-(2-fluoro-4-pyridyl)-N-[3-[4-(methoxymethyl)-1-piperidyl]-5-methyl-phenyl]-1,2,4-triazol-3-amine] | 10 to 100 | 1000 to 10000
18 | CC(C)(O)[C@@H]1CN(c2cc(Nc3ncn(-c4cc(F)cc(F)c4)n3)cc(C(F)(F)F)c2)CCN1 [Compound 123, 2-[(2S)-4-[3-[[1-(3,5-difluorophenyl)-1,2,4-triazol-3-yl]amino]-5-(trifluoromethyl)phenyl]piperazin-2-yl]propan-2-ol] | 1 to 10 | ≤ 1
19 | CCc1cc(Nc2ncn(-c3cnccn3)n2)cc(N2CCNCC2)c1 [Compound 124, N-(3-ethyl-5-piperazin-1-yl-phenyl)-1-pyrazin-2-yl-1,2,4-triazol-3-amine] | 1000 to 10000 | ≤ 1
20 | Cc1cc(Nc2ncn(-c3cc(F)cc(F)c3)n2)cc(N2CCN(CC(=O)O)CC2)c1 [Compound 125, 2-[4-[3-[[1-(3,5-difluorophenyl)-1,2,4-triazol-3-yl]amino]-5-methyl-phenyl]piperazin-1-yl]acetic acid] | 10 to 100 | 1 to 10
21 | Cc1cc(Nc2ncn(-c3ccccc3)n2)cc(N2CCN(C3CCOC3C)CC2)c1 (stereo not shown) [Compound 127, N-[3-methyl-5-[4-(2-methyltetrahydrofuran-3-yl)piperazin-1-yl]phenyl]-1-phenyl-1,2,4-triazol-3-amine] | 1000 to 10000 | 1 to 10
22 | Cc1cc(Nc2ncn(-c3cc(F)cc(F)c3)n2)cc(N2CCN3CCC[C@@H]3C2)c1 [Compound 128, N-[3-[(8aR)-3,4,6,7,8,8a-hexahydro-1H-pyrrolo[1,2-a]pyrazin-2-yl]-5-methyl-phenyl]-1-(3,5-difluorophenyl)-1,2,4-triazol-3-amine] | 10 to 100 | 10 to 100
23 | Cc1cc(-n2cnc(Nc3cc(C4CC4)cc(N4CCN(C5COC5)CC4)c3)n2)nc(C)n1 [Compound 129, N-[3-cyclopropyl-5-[4-(oxetan-3-yl)piperazin-1-yl]phenyl]-1-(2,6-dimethylpyrimidin-4-yl)-1,2,4-triazol-3-amine] | ≤ 1 | ≤ 1
